In ChEMBL document CHEMBL1909046, “DrugMatrix in vitro pharmacology data”:

Key:
[1] = biological target: T1, Alpha-2C adrenergic receptor (Homo sapiens, UniProt P18825); test: DRUGMATRIX: Adrenergic Alpha-2C radioligand binding (ligand: [3H] MK-912); format: cell membranes, Sf9, Membrane
T1 sequence (P18825 whole entry): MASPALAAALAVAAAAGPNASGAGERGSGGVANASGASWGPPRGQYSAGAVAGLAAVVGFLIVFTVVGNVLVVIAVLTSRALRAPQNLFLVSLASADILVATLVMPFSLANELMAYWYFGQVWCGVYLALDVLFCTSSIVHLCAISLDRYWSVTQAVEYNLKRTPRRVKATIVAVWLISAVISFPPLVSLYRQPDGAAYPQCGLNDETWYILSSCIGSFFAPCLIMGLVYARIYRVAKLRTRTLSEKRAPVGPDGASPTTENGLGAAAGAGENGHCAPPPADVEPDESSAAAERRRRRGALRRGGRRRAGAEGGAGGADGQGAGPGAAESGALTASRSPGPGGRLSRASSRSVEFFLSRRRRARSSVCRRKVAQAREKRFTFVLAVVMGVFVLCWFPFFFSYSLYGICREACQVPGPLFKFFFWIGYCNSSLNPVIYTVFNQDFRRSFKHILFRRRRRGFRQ

[2] = biological target: T2, Vasoactive intestinal polypeptide receptor 1 (Homo sapiens, UniProt P32241); format: cell membranes, Membrane; settings: ht-29; also: in other assays of this panel Not Active means under 50% inhibition at 10 µM
T2 sequence (P32241 whole entry): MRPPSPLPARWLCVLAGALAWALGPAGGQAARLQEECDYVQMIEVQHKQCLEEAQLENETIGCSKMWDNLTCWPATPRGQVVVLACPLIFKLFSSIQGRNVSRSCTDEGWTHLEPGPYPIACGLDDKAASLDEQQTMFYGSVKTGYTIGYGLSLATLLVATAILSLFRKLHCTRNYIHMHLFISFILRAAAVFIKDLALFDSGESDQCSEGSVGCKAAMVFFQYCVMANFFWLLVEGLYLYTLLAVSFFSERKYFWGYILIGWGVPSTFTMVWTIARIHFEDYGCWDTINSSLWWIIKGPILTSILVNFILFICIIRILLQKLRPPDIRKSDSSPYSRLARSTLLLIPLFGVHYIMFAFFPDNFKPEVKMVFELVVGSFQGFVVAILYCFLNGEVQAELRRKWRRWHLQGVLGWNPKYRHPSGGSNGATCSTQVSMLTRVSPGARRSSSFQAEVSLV

[3] = DRUGMATRIX: GABAA, Muscimol, Central radioligand binding (ligand: [3H] Muscimol); format: cell membranes, Rattus norvegicus, Wistar, Brain, Membrane; settings: Not Active = under 50% inhibition at 10 µM
[4] = biological target: Insulin receptor (Rattus norvegicus, UniProt P15127); format: cell membranes, Wistar, Liver, Membrane; also: in other assays of this panel Not Active means under 50% inhibition at 10 µM
Insulin receptor, sequence (P15127 27-759 limits assumed): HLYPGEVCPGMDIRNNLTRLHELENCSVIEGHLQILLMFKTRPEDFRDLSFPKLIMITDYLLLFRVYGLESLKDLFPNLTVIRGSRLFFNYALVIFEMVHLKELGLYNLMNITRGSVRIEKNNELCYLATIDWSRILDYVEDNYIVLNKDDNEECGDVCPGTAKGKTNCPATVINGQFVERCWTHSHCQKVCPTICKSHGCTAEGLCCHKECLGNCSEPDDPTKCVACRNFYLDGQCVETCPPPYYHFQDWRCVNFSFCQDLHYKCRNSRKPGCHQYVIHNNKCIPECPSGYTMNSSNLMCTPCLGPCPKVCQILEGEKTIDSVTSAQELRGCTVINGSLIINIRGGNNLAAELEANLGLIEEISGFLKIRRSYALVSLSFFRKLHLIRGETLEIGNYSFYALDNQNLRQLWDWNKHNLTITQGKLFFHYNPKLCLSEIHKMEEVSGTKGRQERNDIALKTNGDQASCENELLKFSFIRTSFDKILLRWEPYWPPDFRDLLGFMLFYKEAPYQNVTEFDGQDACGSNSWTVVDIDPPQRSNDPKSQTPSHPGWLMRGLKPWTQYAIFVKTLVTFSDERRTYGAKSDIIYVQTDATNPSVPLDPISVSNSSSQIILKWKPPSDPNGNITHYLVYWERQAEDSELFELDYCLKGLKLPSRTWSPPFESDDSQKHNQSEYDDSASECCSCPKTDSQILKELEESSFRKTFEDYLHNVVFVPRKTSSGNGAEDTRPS
Insulin receptor, sequence (P15127 764-1383 limits assumed): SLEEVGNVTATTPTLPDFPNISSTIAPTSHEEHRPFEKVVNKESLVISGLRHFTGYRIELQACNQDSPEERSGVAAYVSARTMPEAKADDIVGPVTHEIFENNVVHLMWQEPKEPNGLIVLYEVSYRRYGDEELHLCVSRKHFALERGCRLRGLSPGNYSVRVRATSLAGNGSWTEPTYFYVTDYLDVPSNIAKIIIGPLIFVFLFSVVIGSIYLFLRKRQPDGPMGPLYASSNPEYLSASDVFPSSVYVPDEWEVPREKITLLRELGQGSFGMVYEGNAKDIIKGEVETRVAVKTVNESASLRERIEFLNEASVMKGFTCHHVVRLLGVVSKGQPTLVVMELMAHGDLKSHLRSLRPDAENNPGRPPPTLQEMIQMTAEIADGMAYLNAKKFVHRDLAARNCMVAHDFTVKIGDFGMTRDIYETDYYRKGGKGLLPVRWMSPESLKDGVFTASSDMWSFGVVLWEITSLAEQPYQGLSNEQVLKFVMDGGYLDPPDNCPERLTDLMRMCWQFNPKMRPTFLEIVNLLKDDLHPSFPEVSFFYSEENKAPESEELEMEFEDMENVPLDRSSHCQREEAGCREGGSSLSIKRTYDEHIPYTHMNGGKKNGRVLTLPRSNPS

[5] = biological target: T3, Neuropeptide Y receptor type 2 (Homo sapiens, UniProt P49146); format: cell membranes, Membrane; settings: kan-ts; also: in other assays of this panel Not Active means under 50% inhibition at 10 µM
T3 sequence (P49146 whole entry): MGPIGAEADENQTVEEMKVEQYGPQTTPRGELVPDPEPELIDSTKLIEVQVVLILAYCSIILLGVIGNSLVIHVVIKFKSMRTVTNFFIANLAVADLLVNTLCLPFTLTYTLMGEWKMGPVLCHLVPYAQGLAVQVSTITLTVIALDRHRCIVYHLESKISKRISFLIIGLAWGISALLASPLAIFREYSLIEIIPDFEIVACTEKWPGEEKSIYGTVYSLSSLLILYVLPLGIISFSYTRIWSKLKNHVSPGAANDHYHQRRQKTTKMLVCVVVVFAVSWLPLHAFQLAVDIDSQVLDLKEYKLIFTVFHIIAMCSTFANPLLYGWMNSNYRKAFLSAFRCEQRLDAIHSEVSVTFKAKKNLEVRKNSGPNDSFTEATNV

[6] = biological target: Delta-type opioid receptor (Homo sapiens, UniProt P41143); format: cell membranes, HEK293, Membrane; settings: hek293; also: in other assays of this panel Not Active means under 50% inhibition at 10 µM
Delta-type opioid receptor, sequence (P41143 whole entry): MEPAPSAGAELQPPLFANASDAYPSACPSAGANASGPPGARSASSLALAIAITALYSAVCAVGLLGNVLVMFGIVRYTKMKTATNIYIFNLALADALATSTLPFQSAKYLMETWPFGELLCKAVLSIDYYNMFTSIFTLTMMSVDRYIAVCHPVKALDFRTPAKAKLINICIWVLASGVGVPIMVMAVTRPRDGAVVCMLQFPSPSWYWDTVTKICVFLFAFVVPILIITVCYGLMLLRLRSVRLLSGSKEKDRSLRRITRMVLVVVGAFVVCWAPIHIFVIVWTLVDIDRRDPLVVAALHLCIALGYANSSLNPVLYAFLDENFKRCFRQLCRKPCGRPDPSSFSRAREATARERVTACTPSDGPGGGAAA

[7] = DRUGMATRIX: Potassium Channel [KATP] radioligand binding (ligand: [3H] Glyburide); format: cell membranes, Membrane; settings: hit-t15; Not Active = under 50% inhibition at 10 µM
[8] = biological target: T4, Caspase-1 (Homo sapiens, UniProt P29466); design: species or system Escherichia coli
T4 sequence (P29466 whole entry): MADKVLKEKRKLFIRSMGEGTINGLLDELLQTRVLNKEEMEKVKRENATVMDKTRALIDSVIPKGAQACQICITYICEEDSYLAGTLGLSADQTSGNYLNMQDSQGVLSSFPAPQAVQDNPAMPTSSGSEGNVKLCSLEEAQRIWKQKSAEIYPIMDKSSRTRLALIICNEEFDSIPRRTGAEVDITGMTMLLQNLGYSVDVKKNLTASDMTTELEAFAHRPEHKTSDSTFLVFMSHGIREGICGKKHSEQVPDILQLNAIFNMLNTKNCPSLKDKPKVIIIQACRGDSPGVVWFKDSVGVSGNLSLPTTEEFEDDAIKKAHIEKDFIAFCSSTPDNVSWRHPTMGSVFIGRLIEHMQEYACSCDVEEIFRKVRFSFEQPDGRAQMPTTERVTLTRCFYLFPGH

| Compound | IC50 ([1]; sf9) | Ki ([1]; sf9) | IC50 [2] | Ki [2] | IC50 [3] | Ki [3] | IC50 [4] | Ki [4] | IC50 [5] | Ki [5] | IC50 [6] | Ki [6] | IC50 [7] | Ki [7] | IC50 [8] | Ki [8] | IC50 ([1]; read-out: IC50) | Ki ([1]; read-out: Ki) |
| --- | --- | --- | --- | --- | --- | --- | --- | --- | --- | --- | --- | --- | --- | --- | --- | --- | --- | --- |
| LIPOPOLYSACCHARIDE E. COLI O55:B5 | Not Active | Not Active | Not Active | Not Active | Not Active | Not Active | Not Active | Not Active | Not Active | Not Active | Not Active | Not Active | Not Active | Not Active | Not Active | Not Active |  |  |
| COc1cc2c3cc1Oc1cc(ccc1O)C[C@@H]1c4c(cc(OC)c(O)c4Oc4ccc(cc4)C[C@@H]3N(C)CC2)CC[N+]1(C)C.[Cl-] | Not Active |  | Not Active |  | Not Active | Not Active | Not Active |  | Not Active |  | Not Active |  | Not Active | Not Active | Not Active |  |  |  |
| Cc1cc(C(C#N)c2ccc(Cl)cc2)c(Cl)cc1NC(=O)c1cc(I)cc(I)c1O (stereo not drawn) [CLOSANTEL] |  |  | Not Active |  | Not Active | Not Active | Not Active |  | Not Active |  | Not Active |  | Not Active | Not Active | Not Active |  | 7.1 µM | 1000 nM |
| CC(NC(C)(C)C)C(=O)c1cccc(Cl)c1 (stereo not drawn) [BUPROPION] | Not Active |  | Not Active |  | Not Active | Not Active | Not Active |  | Not Active |  | Not Active |  | Not Active | Not Active | Not Active |  |  |  |
| Cc1onc(-c2ccccc2Cl)c1C(=O)N[C@@H]1C(=O)N2[C@@H]1SC(C)(C)[C@@H]2C(=O)O [CLOXACILLIN] | Not Active |  | Not Active |  | Not Active | Not Active | Not Active |  | Not Active |  | Not Active |  | Not Active | Not Active | Not Active |  |  |  |
| CADMIUM ACETATE | Not Active | Not Active | Not Active | Not Active | Not Active | Not Active | Not Active | Not Active | Not Active | Not Active | Not Active | Not Active | Not Active | Not Active | Not Active | Not Active |  |  |
| CNCCCN1c2ccccc2CCc2ccccc21 [DESIPRAMINE] | Not Active |  | Not Active |  | Not Active | Not Active | Not Active |  | Not Active |  | Not Active |  | Not Active | Not Active | Not Active |  |  |  |
| C[C@]12CC[C@@H]3c4ccc(O)cc4CC[C@H]3[C@@H]1CCC2=O [ESTRONE] | Not Active |  | Not Active |  | Not Active | Not Active | Not Active |  | Not Active |  | Not Active |  | Not Active | Not Active | Not Active |  |  |  |
| C[C@]12CCC(=O)C=C1CC[C@@H]1[C@@H]2CC[C@@]2(C)[C@H]1CC[C@]2(C)O [METHYLTESTOSTERONE] | Not Active |  | Not Active |  | Not Active | Not Active | Not Active |  | Not Active |  | Not Active |  | Not Active | Not Active | Not Active |  |  |  |
| CC(=O)O[C@@]12CO[C@@H]1C[C@H](O)[C@@]1(C)C(=O)[C@H](O)C3=C(C)[C@@H](OC(=O)[C@H](O)[C@@H](NC(=O)OC(C)(C)C)c4ccccc4)C[C@@](O)([C@@H](OC(=O)c4ccccc4)[C@H]21)C3(C)C.O.O.O [DOCETAXEL] | Not Active |  | Not Active |  | Not Active | Not Active | Not Active |  | Not Active |  | Not Active |  | Not Active | Not Active | Not Active |  |  |  |
